The test system of one assay is PPC-1 cells. In words: MTS viability of adherent PPC-1 cells with or without CH-11, thirty hours. Conditions: CH-11 100 ng/mL. Format: cell-based, human. On the procedure:
FIG. 13. Small molecule down-regulation of FLIP sensitizes prostate cancer cells to anoikis. (A) PPC-1 cells were seeded overnight in adherent conditions and then treated with increasing concentrations of 5809354 for 16 hours. After incubation, cells were harvested. Total cellular RNA was extracted and mRNA levels of the long isoform of FLIP (FLIPL), the short isoform of FLIP (FLIPS), or rRNA levels of 18S were detected by real-time RT-PCR. Data were normalized using the ΔΔCT method and expressed as the mean±SEM percent of […] expression relative to untreated controls. (B) PPC-1 cells were cultured and treated as in panel A. Total cellular protein was isolated and analyzed by SDS-PAGE immunoblotting using anti-FLIP and anti-Actin antibodies. […] Thirty hours after incubation, cell viability was determined using the MTS assay. […] After incubation, apoptosis was measured by flow cytometry to detect cell surface annexin V expression and PI. […] (E) Cells were harvested, fixed, stained with DAPI, and nuclear morphology analyzed by fluorescence microscopy. […] One week later, cells were stained with methylene blue and the number of colonies counted. […]
Cell viability apoptosis, colony formation, and caspase activation assays. Cell viability was assessed using the MTS reduction assay (Promega, Madison, Wis., USA) according to the manufacturer's protocols and as described in Schimmer et al. (2006). […]

Assay [1] concerns PPC-1, OVCAR-3, T47D, MDA-MB-468 and DU 145 cells. Kind of assay: MTS viability with CH-11 after FLIP siRNA transfection. Format: cell-based. Conditions: PPC-1 cells transfected with FLIP siRNA 10 nM. On the procedure: FIG. 8. Decreases in FLIP by compound 5809354 are functionally important. (A) PPC-1, OVCAR-3, T47D, and DU 145 cells (2×10^5) were seeded into 35 mm plates and transfected with double-stranded siRNA targeting FLIP (f), control ds RNA (c), or mock transfected with buffer alone (m). At 24 hours after transfection, cells were treated with CH-11 (100 ng/mL) or buffer control. Cell viability was measured by an MTS assay and expressed as a percentage of untreated control cells (mean+SD; n=3). (B) Levels of FLIP protein were measured by immunoblotting. (C) PPC-1 cells (2×10^5) were seeded into 35 mm plates and transfected with siRNAs (10 nM) targeting FLIP or luciferase as a control (CNTRL). At 24 hours after transfection, cells were treated with increasing concentrations of 5809354 with or without CH-11 anti-FAS antibody (100 ng/mL) for an additional 24 hours. Cell viability was measured by an MTS assay, and expressed as a percentage of control untreated cells (mean+SD; n=3).
Transfection of siRNA oligonucleotides. […]
To test the functional importance of decreases in FLIP by 5809354, it was determined whether knocking down FLIP could recapitulate the activity of the molecule and abrogate 5809354's ability to sensitize cells to CH-11. […]

Assay [2] deals with PC-3, DU-145, LNCaP, T47D, MB-MDA-468 and OVCAR-3 cells. Kind of assay: Anoikis of additional malignant cell lines: colony formation after suspension culture. Format: cell-based. The protocol:
FIG. 14. Tumor cell sensitivity to anoikis correlates with sensitivity to Fas-mediated apoptosis. PC-3, DU-145, and LNCaP prostate, T47D and MB-MDA-468 breast, and OVCAR-3 ovarian cancer cells were cultured under adherent conditions with increasing concentrations of 5809354, in the presence or absence of Fas-activating antibody (CH-11, 100 ng/mL). Thirty hours after incubation, cell viability was determined using the MTS assay. Cell lines were also cultured under suspension conditions in the presence or absence of 5809354. Thirty hours after incubation, equal volumes of suspension-cultured cells were replated in a colony formation assay. Data represents the mean±SEM percent of viable cells or colonies compared to untreated controls.
Cell viability apoptosis, colony formation, and caspase activation assays. Cell viability was assessed using the MTS reduction assay (Promega, Madison, Wis., USA) according to the manufacturer's protocols and as described in Schimmer et al. (2006). Apoptosis was measured by flow cytometry to detect cell surface annexin V expression and propidium iodide (PI) uptake (Biovision, Mountain View, Calif., USA) as described in Carter et al. (2005). […] Clonogenic growth after suspension culture was measured using colony formation assays. […] Colonies were fixed, stained with methylene blue, and counted. […]

As for “4-(4-chloro-2-methylphenoxy)-N-hydroxybutanamide [compound 5809354]”, the “viability in the presence of Fas-activating antibody (CH-11)” value with PPC-1 cells is “decreases in viability”. Moreover, the “enhancement of CH-11-mediated killing in the presence of FLIP siRNA” value in assay [1] is recorded as “the longer enhanced CH-11-mediated killing”. In addition, the sensitization to anoikis entry in assay [2] (LNCaP or MB-MDA-468 cells) is given as “did not sensitize”; in assay [2] (PC-3 and DU-145 prostate, T47D breast and OVCAR-3 ovarian cancer cell lines), “sensitized”.
